Earlier results on one compound are cited in patent publication US12569513B1, “Stable, highly pure L-cysteine compositions for injection and methods of use” (priority 2019, dated 2026).

Molecules are shown by their SMILES. Converted amounts (≈) assume the structure as drawn.

Usually solubility stands for how much of the substance goes into solution per volume. Consider `N[C@@H](CS)C(=O)O` [L-Cysteine, 2-Amino-3-sulfhydrylpropanoic acid], for which the solubility is given as 50 mg/mL (≈ 413 mM).
